In PubChem BioAssay (NCI):
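In this assay, cells in 96-well plates receive the compound at five concentrations for 48 hours. Endpoints are linearly interpolated between the surrounding concentrations. TGI: concentration producing complete growth inhibition.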

How the values were obtained:
Experiment in all cases: NCI tumour cell line growth inhibition, 48 h
A498 renal = system: A498 renal
A549 NSCLC = system: A549 NSCLC
CAKI-1 renal = system: CAKI-1 renal
CCRF-CEM leukemia = system: CCRF-CEM leukemia
COLO 205 colon = system: COLO 205 colon
DLD-1 colon = system: DLD-1 colon
DMS 114 small cell lung = system: DMS 114 small cell lung
DMS 273 small cell lung = system: DMS 273 small cell lung
EKVX NSCLC = system: EKVX NSCLC
HCC-2998 colon = system: HCC-2998 colon
HCT-116 colon = system: HCT-116 colon
HCT-15 colon = system: HCT-15 colon
HL-60(TB) leukemia = system: HL-60(TB) leukemia
HOP-18 NSCLC = system: HOP-18 NSCLC
HOP-62 NSCLC = system: HOP-62 NSCLC
HOP-92 NSCLC = system: HOP-92 NSCLC
HT29 colon = system: HT29 colon
IGROV1 ovarian = system: IGROV1 ovarian
K-562 leukemia = system: K-562 leukemia
KM12 colon = system: KM12 colon
KM20L2 colon = system: KM20L2 colon
LOX IMVI melanoma = system: LOX IMVI melanoma
M19-MEL melanoma = system: M19-MEL melanoma
MALME-3M melanoma = system: MALME-3M melanoma
MCF7 breast = system: MCF7 breast
MOLT-4 leukemia = system: MOLT-4 leukemia
NCI-H226 lung = system: NCI-H226 lung
NCI-H23 lung = system: NCI-H23 lung
NCI-H460 lung = system: NCI-H460 lung
NCI-H522 lung = system: NCI-H522 lung
NCI/ADR-RES ovarian = system: NCI/ADR-RES ovarian
OVCAR-3 ovarian = system: OVCAR-3 ovarian
OVCAR-4 ovarian = system: OVCAR-4 ovarian
OVCAR-5 ovarian = system: OVCAR-5 ovarian
OVCAR-8 ovarian = system: OVCAR-8 ovarian
P388/ADR leukemia = system: P388/ADR leukemia
RPMI-8226 leukemia = system: RPMI-8226 leukemia
RXF 393 renal = system: RXF 393 renal
SF-268 CNS = system: SF-268 CNS
SF-295 CNS = system: SF-295 CNS
SF-539 CNS = system: SF-539 CNS
SK-MEL-2 melanoma = system: SK-MEL-2 melanoma
SK-MEL-28 melanoma = system: SK-MEL-28 melanoma
SK-MEL-5 melanoma = system: SK-MEL-5 melanoma
SK-OV-3 ovarian = system: SK-OV-3 ovarian
SN12C renal = system: SN12C renal
SN12K1 renal = system: SN12K1 renal
SNB-19 CNS = system: SNB-19 CNS
SNB-75 CNS = system: SNB-75 CNS
SNB-78 CNS = system: SNB-78 CNS
SW-620 colon = system: SW-620 colon
U251 CNS = system: U251 CNS
UACC-257 melanoma = system: UACC-257 melanoma
UACC-62 melanoma = system: UACC-62 melanoma
UO-31 renal = system: UO-31 renal
XF 498 CNS = system: XF 498 CNS
P388 leukemia = system: P388 leukemia

## COc1cccc2c1C(=O)c1c(O)c3c(c(O)c1C2=O)CC(O)(C(=O)CO)CC3OC1CC(N)C(I)C(C)O1 (configuration not stated)
A498 renal
  TGI: 21.4 µM
A549 NSCLC
  TGI: > 55.1 µM
CAKI-1 renal
  TGI: > 100 µM
CCRF-CEM leukemia
  TGI: > 100 µM
COLO 205 colon
  TGI: > 100 µM
DLD-1 colon
  TGI: 13.7 µM
DMS 114 small cell lung
  TGI: > 30.2 µM
DMS 273 small cell lung
  TGI: 7.03 µM
EKVX NSCLC
  TGI: > 55.5 µM
HCC-2998 colon
  TGI: 27.1 µM
HCT-116 colon
  TGI: 6.12 µM
HCT-15 colon
  TGI: 14.6 µM
HL-60(TB) leukemia
  TGI: > 100 µM
HOP-18 NSCLC
  TGI: 65.7 µM
HOP-62 NSCLC
  TGI: 13.9 µM
HOP-92 NSCLC
  TGI: > 63 µM
HT29 colon
  TGI: > 100 µM
IGROV1 ovarian
  TGI: 18.4 µM
K-562 leukemia
  TGI: > 100 µM
KM12 colon
  TGI: > 100 µM
KM20L2 colon
  TGI: > 54.2 µM
LOX IMVI melanoma
  TGI: 9.15 µM
M19-MEL melanoma
  TGI: 30.7 µM
MALME-3M melanoma
  TGI: 25.1 µM
MCF7 breast
  TGI: 29.4 µM
MOLT-4 leukemia
  TGI: > 100 µM
NCI-H226 lung
  TGI: 2.95 µM
NCI-H23 lung
  TGI: 15.1 µM
NCI-H460 lung
  TGI: 12.6 µM
NCI-H522 lung
  TGI: > 100 µM
NCI/ADR-RES ovarian
  TGI: > 31.6 µM
OVCAR-3 ovarian
  TGI: > 57.6 µM
OVCAR-4 ovarian
  TGI: 26.9 µM
OVCAR-5 ovarian
  TGI: > 54.6 µM
OVCAR-8 ovarian
  TGI: 34.1 µM
P388/ADR leukemia
  TGI: > 20.1 µM
RPMI-8226 leukemia
  TGI: > 100 µM
RXF 393 renal
  TGI: 25.2 µM
SF-268 CNS
  TGI: > 100 µM
SF-295 CNS
  TGI: 23.3 µM
SF-539 CNS
  TGI: 11.8 µM
SK-MEL-2 melanoma
  TGI: 30.4 µM
SK-MEL-28 melanoma
  TGI: > 100 µM
SK-MEL-5 melanoma
  TGI: 14.5 µM
SK-OV-3 ovarian
  TGI: 18.6 µM
SN12C renal
  TGI: > 63.8 µM
SN12K1 renal
  TGI: > 37.2 µM
SNB-19 CNS
  TGI: > 100 µM
SNB-75 CNS
  TGI: > 100 µM
SNB-78 CNS
  TGI: > 100 µM
SW-620 colon
  TGI: > 100 µM
U251 CNS
  TGI: 19.3 µM
UACC-257 melanoma
  TGI: > 52.3 µM
UACC-62 melanoma
  TGI: 7.43 µM
UO-31 renal
  TGI: 17.5 µM
XF 498 CNS
  TGI: 22.2 µM

## CCOCCOc1ccc(OCCOCC)cc1
A498 renal
  TGI: > 61.8 µM
A549 NSCLC
  TGI: > 100 µM
CCRF-CEM leukemia
  TGI: 9.84 µM
COLO 205 colon
  TGI: 33.3 µM
DLD-1 colon
  TGI: 28.2 µM
DMS 114 small cell lung
  TGI: 17.1 µM
DMS 273 small cell lung
  TGI: > 58.4 µM
HCC-2998 colon
  TGI: > 100 µM
HCT-116 colon
  TGI: 33.4 µM
HCT-15 colon
  TGI: 40.3 µM
HL-60(TB) leukemia
  TGI: 12.7 µM
HOP-18 NSCLC
  TGI: 61.3 µM
HOP-62 NSCLC
  TGI: > 100 µM
HT29 colon
  TGI: 38.9 µM
IGROV1 ovarian
  TGI: 38 µM
K-562 leukemia
  TGI: 24.2 µM
KM12 colon
  TGI: > 100 µM
KM20L2 colon
  TGI: 47.2 µM
LOX IMVI melanoma
  TGI: 33.8 µM
M19-MEL melanoma
  TGI: > 62.5 µM
MALME-3M melanoma
  TGI: 45.8 µM
MCF7 breast
  TGI: 32.9 µM
MOLT-4 leukemia
  TGI: > 43 µM
NCI-H226 lung
  TGI: > 73.1 µM
NCI-H23 lung
  TGI: > 100 µM
NCI-H460 lung
  TGI: > 73.7 µM
NCI/ADR-RES ovarian
  TGI: 39.3 µM
OVCAR-3 ovarian
  TGI: > 49.3 µM
OVCAR-4 ovarian
  TGI: 20.7 µM
OVCAR-5 ovarian
  TGI: > 100 µM
OVCAR-8 ovarian
  TGI: 35.4 µM
P388 leukemia
  TGI: > 100 µM
RPMI-8226 leukemia
  TGI: 26.4 µM
RXF 393 renal
  TGI: 33 µM
SF-268 CNS
  TGI: 36 µM
SF-295 CNS
  TGI: > 57.2 µM
SK-MEL-2 melanoma
  TGI: > 63.7 µM
SK-MEL-28 melanoma
  TGI: 40.8 µM
SK-MEL-5 melanoma
  TGI: > 54 µM
SK-OV-3 ovarian
  TGI: > 100 µM
SN12C renal
  TGI: 31.8 µM
SN12K1 renal
  TGI: 31.6 µM
SNB-19 CNS
  TGI: > 100 µM
SNB-75 CNS
  TGI: 52.8 µM
SNB-78 CNS
  TGI: > 57.7 µM
SW-620 colon
  TGI: 40.1 µM
U251 CNS
  TGI: > 100 µM
UACC-257 melanoma
  TGI: 32.3 µM
UACC-62 melanoma
  TGI: 38.7 µM
UO-31 renal
  TGI: 26.9 µM
XF 498 CNS
  TGI: 30.1 µM
